According to patent US20050065340A1, “Metabotropic glutamate receptor-5 modulators” (priority 2001, published 2005):
Where a name gives a salt, the structure may show the parent alone.

Row | melting point | SMILES
1 | 215 °C | COc1cc(-c2nc3ccccc3o2)ccc1-c1ccccn1 (as salt: hydrochloride) [Example 54, 2-(3-Methoxy-4-pyridin-2-ylphenyl)-1,3-benzoxazole hydrochloride salt]
2 | 190 to 191 °C | N#CCc1ccc(-c2nc3ccccc3o2)cc1Br [Example 1, [4-(1,3-Benzoxazol-2-yl)-2-bromnophenyl]acetonitrile]
3 | 175 to 176 °C | N#CCc1ccc(-c2nc3ccccc3o2)cc1-c1cccc(C#N)c1 [Example 4, 5′-(1,3-Benzoxazol-2-yl)-2′-(cyanomethyl)-1,1′-biphenyl-3-carbonitrile]
4 | 203 °C | N#CCc1ccc(-c2nc3ccccc3o2)cc1[N+](=O)[O-] [Example 6, [4-(1,3-Benzoxazol-2-yl)-2-nitrophenyl]acetonitrile]
5 | 198 to 199 °C | N#CCc1ccc(-c2nc3ccccc3o2)cc1N [Example 7, [2-Amino-4-(1,3-benzoxazol-2-yl)phenyl]acetonitrile]
